Values quoted from earlier work, collected in patent US20150209317A1, “Plant Extracts for Improving Cognitive Function” (Kemin Industries, Inc., priority 2014, published 2015).

What was measured:
[1] = subchronic administration (Park 2010)
aging mice = settings: RA administration to aging mice

For `O=C(/C=C/c1ccc(O)c(O)c1)O[C@H](Cc1ccc(O)c(O)c1)C(=O)O` [Rosmarinic acid], the “Memory in the Morris water maze spatial task” value [1] is listed as “improved memory”, the “Catalase (CAT) activity in the brain” value (aging mice) is listed as “increased” and the “Malondialdehyde (MDA) in the brain” value (aging mice) is listed as “decreasing”. The “Superoxide dismutase (SOD) activity in the brain” value (aging mice) was “increased”.
